Patent publication US20170105960A1, “Prodrugs of Succinic Acid for Increasing ATP Production” (NEUROVIVE PHARMACEUTICAL AB, priority 2014, published 2017)
“Also recorded” adds a separate entry of the source.

Key:
[1] = tested on: intact cells; test: Screening assay 3: assay to assess uncoupling in intact cells (high-resolution respirometry); assay type: cell-based, human; set-up: key: The response in each parameter is graded either +, ++ or +++ in increasing order of potency; The response in each parameter is graded either +, ++ or +++ in increasing order of potency; The response in each parameter is graded either +, ++ or +++ in increasing order of potency; (+): Brackets [( )] indicate an intermediate effect, i.e. (+++) is between ++ and +++; conditions: for Convergent (Routine): increase in mitochondrial oxygen consumption induced by the compound, screening assay 3, 1 mM compound; for Uncoupling: level of oxygen consumption after addition of oligomycin, screening assay 3
Method: In the third protocol, the same buffer as described above is used. […] Subsequently, the ATP-synthase-inhibitor Oligomycin is added. A reduction in respiration is a measure of how much of the oxygen consumption that is coupled to ATP synthesis. No, or only a slight, reduction indicate that the compound is inducing a proton leak over the inner mitochondrial membrane. The uncoupler FCCP is then titrated to induce maximum uncoupled respiration. […] The experiment is terminated by the addition of 1 μg/mL of the complex III inhibitor Antimycin to measure non-mitochondrial oxygen consumption.

[2] = tested on: intact cells; test: Screening assay 2: enhancement and inhibition of mitochondrial energy producing function in intact cells (FCCP uncoupled); assay type: cell-based, human; set-up: key to Convergent (FCCP): The response in each parameter is graded either +, ++ or +++ in increasing order of potency; The response in each parameter is graded either +, ++ or +++ in increasing order of potency; The response in each parameter is graded either +, ++ or +++ in increasing order of potency; (+): Brackets [( )] indicate an intermediate effect, i.e. (+++) is between ++ and +++; conditions: for Convergent (FCCP): increase in mitochondrial oxygen consumption, screening assay 2, uncoupled conditions; for Toxicity: lowest concentration during compound titration at which a decrease in oxygen consumption is seen, screening assay 2
Method: (§1) Measurement of mitochondrial respiration is performed in a high-resolution oxygraph (Oxygraph—2k, Oroboros Instruments, Innsbruck, Austria) at a constant temperature of 37° C. Isolated human platelets, white blood cells, fibroblasts, human heart muscle fibers or other cell types containing live mitochondria are suspended in a 2 mL glass chamber at a concentration sufficient to yield oxygen consumption in the medium of ≧10 pmol O2 s^−1 mL^−1.
In the second protocol the same buffer is used as described above. After basal respiration is established, the mitochondrial uncoupler FCCP is added at a concentration of 2 nM to increase metabolic demand.

[3] = tested on: Intact human blood cells with inhibited complex I; test: Screening assay 4: enhancement of mitochondrial energy producing function in cells with inhibited respiratory complex I in human plasma; assay type: cell-based; set-up: key: The response in each parameter is graded either +, ++ or +++ in increasing order of potency; The response in each parameter is graded either +, ++ or +++ in increasing order of potency; The response in each parameter is graded either +, ++ or +++ in increasing order of potency; (+): Brackets [( )] indicate an intermediate effect, i.e. (+++) is between ++ and +++; conditions: increase in mitochondrial oxygen consumption
Method: as §1
Intact human blood cells are incubated in plasma from the same donor. […] Compounds dissolved in DMSO are titrated in a range of 10 μM to 10 mM final concentration. The experiment is terminated by addition of Antimycin at final concentration 1 μg/mL and any residual non-mitochondrial oxygen consumption is measured.

[4] = tested on: cells with inhibited respiratory complex I; test: Screening assay 1: enhancement of mitochondrial energy producing function in cells with inhibited respiratory complex I; assay type: cell-based, human; set-up: key: The response in each parameter is graded either +, ++ or +++ in increasing order of potency; The response in each parameter is graded either +, ++ or +++ in increasing order of potency; The response in each parameter is graded either +, ++ or +++ in increasing order of potency; (+): Brackets [( )] indicate an intermediate effect, i.e. (+++) is between ++ and +++; conditions: increase in mitochondrial oxygen consumption in cells with inhibited complex I
Method: as §1
Cells are placed in a buffer containing 110 mM sucrose, HEPES 20 mM, taurine 20 mM, K-lactobionate 60 mM, MgCl2 3 mM, KH2PO4 10 mM, EGTA 0.5 mM, BSA 1 g/l, pH 7.1. […] Compounds dissolved in DMSO are titrated in a range of 10 μM to 10 mM final concentration. Subsequently, cell membranes are permeabilised with digitonin (1 mg/1*10^6 plt) to allow entry of extracellularly released energy substrate or cell impermeable energy substrates. After stabilized respiration, Succinate 10 mM is added as a reference to enable respiration downstream of complex I. After the respiration stabilized the experiment is terminated by addition of Antimycin at final concentration 1 μg/mL and any residual non-mitochondrial oxygen consumption is measured. An increase in respiration rate in the described protocol is tightly coupled to ATP synthesis by oxidative phosphorylation unless cells are uncoupled (i.e. proton leak without production of ATP). […]

[5] = tested on: intact cells; test: Assays exemplified for enhancement of mitochondrial energy producing function (not specified which); assay type: cell-based, human
Method: An increase in respiration rate in the described protocol is tightly coupled to ATP synthesis by oxidative phosphorylation unless cells are uncoupled (i.e. proton leak without production of ATP). Uncoupling is tested for by addition of the ATP synthase inhibitor oligomycin (1-2 μg mL^−1) in a protocol 3 where the extent of uncoupling corresponds to the respiratory rate following oligomycin addition. In the second protocol the same buffer is used as described above. […] In the third protocol, the same buffer as described above is used. […] Subsequently, the ATP-synthase-inhibitor Oligomycin is added. A reduction in respiration is a measure of how much of the oxygen consumption that is coupled to ATP synthesis. No, or only a slight, reduction indicate that the compound is inducing a proton leak over the inner mitochondrial membrane. The uncoupler FCCP is then titrated to induce maximum uncoupled respiration. […] The experiment is terminated by the addition of 1 μg/mL of the complex III inhibitor Antimycin to measure non-mitochondrial oxygen consumption. Intact human blood cells are incubated in plasma from the same donor. […] The experiment is terminated by addition of Antimycin at final concentration 1 μg/mL and any residual non-mitochondrial oxygen consumption is measured.

[6] = tested on: intact human platelets; test: Intervention on rotenone- or metformin-induced lactate production with cell-permeable succinate prodrugs; assay type: cell-based; conditions: for effect on metformin-induced lactate production: 10 mM metformin, consecutive additions of 250 μM each 30 minutes; for effect on rotenone-induced lactate production: rotenone 2 μM, repeated additions of 250 μM each 30 minutes
Method: (§2) Lactate levels are determined every 2 h using the Lactate Pro™ 2 blood lactate test meter (Arkray, Alere AB, Lidingö, Sweden) or similar types of measurements. Incubation is performed at 37° C. pH is measured at start, after 4 and after 8 h (or more frequently) of incubation using a Standard pH Meter, e.g. PHM210 (Radiometer, Copenhagen, Denmark). Drug candidates are added to the assay from start or following 30-60 min at concentrations within the range 10 μM-5 mM. […] In order to evaluate the specificity of the drug candidate, it is also tested in combination with a down-stream inhibitor of respiration such as the complex III inhibitor Antimycin at 1 μg/mL, which should abolish the effect of the drug candidate and restore the production of lactate. The use of antimycin is therefore also a control for undue effects of drug candidates on the lactate producing ability of the cells used in the assay.
Lactate levels were measured in intervals of 30 min with the onset of the experiment.

[7] = tested on: permeabilized human peripheral blood mononuclear cells; test: Mitochondrial respiration in permeabilized human PBMCs (respirometry); assay type: cell-based; conditions: PBMC, read-out: IC50 (OXPHOSCI respiration)
Method: Real-time respirometric measurements were performed using high-resolution oxygraphs (Oxygraph-2k, Oroboros Instruments, Innsbruck, Austria). The experimental conditions during the measurements were the following: 37° C., 2 mL active chamber volume and 750 rpm stirrer speed. […] Settings, daily calibration and instrumental background corrections were conducted according to the manufacturer's instructions. […] All measurements were performed at a platelet concentration of 200×10^6 cells per mL or a PBMC concentration of 5×10^6 cells per mL. […] Maximal uncoupled respiratory electron transport system capacity supported by convergent input through complex I and […] ) was evaluated by subsequent titration with the protonophore carbonyl-cyanide p-(trifluoromethoxy) phenylhydrazone (FCCP). […] The complex III inhibitor antimycin (1 μg mL^-1) was then given to reveal residual oxygen consumption (ROX). […] Complex IV activity was calculated by subtracting the sodium azide value from the TMPD value. With exception of complex IV activity, all respiratory states were measured at steady-state and corrected for ROX. Complex IV activity was measured after ROX determination and not at steady-state.

[8] = tested on: intact human platelets; test: Mitochondrial respiration in intact human platelets (respirometry); assay type: cell-based; conditions: for routine respiration change after 60 min: compared to first measurement after addition
Method: (§3) Lactate production of intact human platelets was determined in PBS containing 10 mM glucose.
Routine respiration was followed for 60 min at 37° C. before the ATP-synthase inhibitor oligomycin (1 μg mL^−1) was added to assess LEAK respiration. Maximal uncoupled respiratory electron transport system capacity supported by endogenous substrates (ETS) was reached by titration of FCCP.

[9] = tested on: intact PBMCs; test: Lactate release of intact PBMCs; assay type: cell-based, human; conditions: 10 mM metformin, data not shown
[10] = tested on: permeabilized human platelets
Method: as §3
Subsequently the FADH2-linked substrate succinate (10 mM) was given to determine convergent complex I- and II-dependent OXPHOS capacity (OXPHOSCI+II). […] Finally, the artificial complex IV substrate N,N,N′,N′-tetramethyl-p-phenylenediamine dihydrochloride (TMPD, 0.5 mM) was added and the complex IV inhibitor sodium azide (10 mM) was given to measure complex IV activity and chemical background, respectively.

[11] = tested on: intact human platelets; test: Lactate production and pH of intact human platelets; assay type: cell-based; conditions: metformin 1 and 10 mM, phenformin 0.5 mM, rotenone 2 μM
Method: as §2
Incubation was performed at 37° C. at a stirrer speed of 750 rpm, and pH was measured at start, after 4 and after 8 h of incubation (n=4) using a PHM210 Standard pH Meter (Radiometer, Copenhagen, Denmark).

[12] = 10 mM metformin plus prodrug, 250 μM each 30 minutes

Question: Which results are given for `CC(=O)OC(CCCOC(=O)CCC(=O)O)OC(=O)CCC(=O)O` (stereo not shown) [01-134]?
Answer: Convergent (Routine) [1]: ++; Uncoupling [1]: (+); Convergent (FCCP) [2]: (+); Toxicity [2]: 10 mM; CII (plasma) [3]: (+); CII [4]: (+)

Question: `CC(=O)OC(CCCN1C(=O)c2ccccc2C1=O)OC(=O)CCC(=O)O` (stereo not shown) [01-150, 4-(1-acetoxy-4-(1,3-dioxoisoindolin-2-yl)butoxy)-4-oxobutanoic acid] was tested. Which “Convergent (Routine)” value [1] did it give?
Answer: The value was “+++”.

Question: And the Uncoupling [1]?
Answer: Its Uncoupling is “(+)”.

Question: And the “Convergent (FCCP)” value [2]?
Answer: Its value is “+”.

Question: And the Toxicity [2]?
Answer: The Toxicity was 2 mM.

Question: And the “CII (plasma)” value [3]?
Answer: The value was “(+)”.

Question: And the CII [4]?
Answer: The CII was “++”.

Question: How did the “activity in the assays exemplified” value [5] turn out when `CCOC(=O)CCC(=O)OCC` [Diethyl succinate] was run?
Answer: The value was “inactive”.

Question: With `CC(=O)OCOC(=O)CCC(=O)OCOC(C)=O` [NV118] as the compound, how does the “rate of lactate production” value [6, 12] read?
Answer: The value was 0.43 mmol lactate (200·10^9 trc·h)^−1.

Question: And the “effect on metformin-induced lactate production” value [6]?
Answer: The value was “significantly decreased”.

Question: And the “effect on rotenone-induced lactate production” value [6]?
Answer: The value was “attenuated”.

Question: `CC(=O)OC(C)OC(=O)CCC(=O)OC(C)OC(C)=O` (stereo not shown) [NV189] was tested. Which “rate of lactate production” value [6, 12] did it give?
Answer: Its value is 0.55 mmol lactate (200·10^9 trc·h)^−1.

Question: And the “effect on metformin-induced lactate production” value [6]?
Answer: The value was “significantly decreased”.

Question: And the “rate of lactate production” value ([6]; rotenone 2 μM plus antimycin 1 μg/mL plus prodrug)?
Answer: Its value is 0.89 mmol lactate (200·10^6trc·h)^−1.

Question: What about the “effect on rotenone-induced lactate production” value [6] of the same compound?
Answer: The value was “attenuated; also recorded: brought back to normal”.

Question: Which “rate of lactate production” value [6, 12] does the source give for `CC(=O)OCOC(=O)CCC(=O)OC(C)OC(C)=O` (stereo not shown) [NV241] here?
Answer: Its value is 0.43 mmol lactate (200·10^9 trc·h)^−1.

Question: And the “effect on metformin-induced lactate production” value [6]?
Answer: Its value is “significantly decreased”.

Question: What about the “effect on rotenone-induced lactate production” value [6] of the same compound?
Answer: The value was “attenuated”.

Question: `COC(=O)CCC(=O)OC` [dimethyl succinate] was tested. Which “activity in the assays exemplified” value [5] did it give?
Answer: The value was “inactive”.

Question: With `CN(C)C(=N)N=C(N)N` [metformin] as the compound, how does the IC50 [7] read?
Answer: The IC50 was 450 µM.

Question: What about the “routine respiration change after 60 min” value ([8]; 1 mM) of the same compound?
Answer: The value was −17.27%.

Question: And the “routine respiration reduction after whole blood incubation” value ([8]; 1 mM, whole blood incubated over 18 h before platelet isolation)?
Answer: The value was 30.49%.

Question: What about the “routine respiration change after 60 min” value ([8]; 10 mM) of the same compound?
Answer: Its value is −28.61%.

Question: And the “routine respiration change after 15 min compared to control” value ([8]; 100 mM, 15 min of exposure)?
Answer: Its value is −39.77%.

Question: And the “routine respiration change after 60 min” value ([8]; 100 mM)?
Answer: Its value is −81.78%.

Question: And the lactate release [9]?
Answer: Its lactate release is “increased lactate release”.

Question: Which “activity in the assays exemplified” value [5] does the source give for `COC(=O)CCC(=O)O` [monomethyl succinate] here?
Answer: The value was “inactive”.

Question: Which results are given for `[H]/N=C(/N)N/C(=N/[H])NCCc1ccccc1` [phenformin]?
Answer: ETSCII capacity and complex IV activity ([10]; compared to controls): not ETSCII or respiration specific to complex IV; fold more potent inhibition of OXPHOSCI than metformin ([10]; phenformin versus metformin): 20 fold; IC50 ([10]; read-out: IC50 (OXPHOSCI respiration), complex I substrates): 58 µM; lactate production over 8 h compared to control [11]: significantly more lactate

Question: `O=C(O)CCC(=O)O` [succinate, reference compound] was tested. Which “effect on metformin-induced lactate production” value [6] did it give?
Answer: The value was “did not reduce the metformin-induced production of lactate; also recorded: did not change this”.
